According to US6737383B1, “Herbicidal oxadiazolidines” (priority 1999, dated 2004):

How the values were obtained:
wheat = assay: Test B pre/postemergence wheat; assay type: in vivo, Triticum aestivum
Outline: (§1)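 Test chemicals in a non-phytotoxic solvent mixture with surfactant were sprayed preemergence onto planted seeds and postemergence onto plants 2 to 18 cm tall (1- to 4-leaf stage). After twelve to sixteen days in a greenhouse, injury was visually rated against untreated controls from 0 (no effect) to 10 (complete control).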

velvetleaf = assay: Test B pre/postemergence velvetleaf; assay type: in vivo, Abutilon theophrasti
Outline: as §1

bedstraw = assay: Test B pre/postemergence bedstraw; assay type: in vivo, Galium aparine
Outline: as §1

morningglory = assay: Test B pre/postemergence morningglory; assay type: in vivo, Ipomoea hederacea
Outline: as §1

sugar beet = assay: Test B pre/postemergence sugar beet; assay type: in vivo, Beta vulgaris
Outline: as §1

corn = assay: Test B pre/postemergence corn; assay type: in vivo, Zea mays
Outline: as §1

wild oat = assay: Test B pre/postemergence wild oat; assay type: in vivo, Avena fatua
Outline: as §1

blackgrass = assay: Test B pre/postemergence blackgrass; assay type: in vivo, Alopecurus myosuroides
Outline: as §1

smallflower flatsedge = assay: Test B flood test smallflower flatsedge; assay type: in vivo, Cyperus difformis
Outline: (§2)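 Read-out is a visual response score from 0 (no effect) to 10 (complete control), assigned by comparison with untreated controls. Treatment was applied at the 2-leaf stage, and plants stayed in the greenhouse for twelve to sixteen days before scoring.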

cocklebur = assay: Test B pre/postemergence cocklebur; assay type: in vivo, Xanthium strumarium
Outline: as §1

rice = assay: Test B flood test rice; assay type: in vivo, Oryza sativa
Outline: as §2

surinam grass = assay: Test B pre/postemergence surinam grass; assay type: in vivo, Brachiaria decumbens
Outline: as §1

soybean = assay: Test B pre/postemergence soybean; assay type: in vivo, Glycine max
Outline: as §1

pigweed = assay: Test B pre/postemergence pigweed; assay type: in vivo, Amaranthus retroflexus
Outline: as §1

rape = assay: Test B pre/postemergence rape; assay type: in vivo, Brassica napus
Outline: as §1

giant foxtail = assay: Test B pre/postemergence giant foxtail; assay type: in vivo, Setaria faberii
Outline: as §1

[1] = Postemergence, Rate 125 g/ha, scale of 0 to 10 where 0 is no effect and 10 is complete control
[2] = Postemergence, Rate 1000 g/ha, scale 0 to 10 (0 no effect, 10 complete control)
[3] = Preemergence, Rate 62 g/ha, scale 0 to 10 (0 no effect, 10 complete control)
[4] = Preemergence, Rate 125 g/ha, 0 is no effect, 10 is complete control
[5] = Preemergence, Rate 250 g/ha, scale of 0 to 10 where 0 is no effect and 10 is complete control
[6] = Preemergence, Rate 500 g/ha, scale 0 (no effect) to 10 (complete control)
[7] = Rate 62 g/ha, Postemergence, scale of 0 to 10 where 0 is no effect and 10 is complete control
[8] = Rate 250 g/ha, Postemergence, scale 0 to 10, 0 is no effect, 10 is complete control
[9] = Rate 500 g/ha, Postemergence, scale 0 to 10, 0 no effect, 10 complete control
[10] = Rate 1000 g/ha, Preemergence, scale 0 to 10 (0 no effect, 10 complete control)
[11] = Postemergence, Rate 62 g/ha, scale 0 to 10, 0 is no effect, 10 is complete control
[12] = Postemergence, Rate 250 g/ha, scale 0 to 10, 0 no effect, 10 complete control
[13] = Preemergence, Rate 125 g/ha, scale 0 to 10 (0 no effect, 10 complete control)
[14] = Rate 125 g/ha, Postemergence, scale 0 to 10, 0 no effect, 10 complete control
[15] = Postemergence (flood test species), Rate 125 g/ha, scale of 0 to 10 where 0 is no effect and 10 is complete control
[16] = Rate 62 g/ha, Postemergence section, flood test species, scale of 0 to 10 where 0 is no effect and 10 is complete control
[17] = Rate 250 g/ha, Postemergence (flood test), scale 0 to 10, 0 is no effect, 10 is complete control
[18] = Rate 500 g/ha, listed under Postemergence (flood test species), scale 0 to 10, 0 no effect, 10 complete control

For CC(C)N(C(=O)n1oc(=O)n(C2CCCCC2C(F)(F)F)c1=O)c1ccc(F)cc1 (stereo not shown) [Compound 99], the “Wheat plant response rating” value (wheat; [1]) was 0, the “Wheat plant response rating” value (wheat; [2]) was 2 and the “Wheat plant response rating” value (wheat; [3]) was 0. For the same compound, the “Wheat plant response rating (0 to 10 scale)” value (wheat; [4]) was 0, the “Plant response rating, Wheat” value (wheat; [5]) was 2 and the “Wheat plant response rating” value (wheat; [6]) was 2. For the same compound, the “Wheat plant response rating” value (wheat; [7]) was 0, the “Plant response rating, Wheat” value (wheat; [8]) was 0 and the “Wheat plant response rating” value (wheat; [9]) was 0. For the same compound, the “Plant response rating, Wheat” value (wheat; [10]) was 2, the “Velvetleaf plant response rating” value (velvetleaf; [1]) was 3 and the “Velvetleaf plant response rating” value (velvetleaf; [2]) was 7. The “Velvetleaf plant response rating” value (velvetleaf; [3]) was 0, the “Velvetleaf plant response rating (0 to 10 scale)” value (velvetleaf; [4]) was 0 and the “Plant response rating, Velvetleaf” value (velvetleaf; [5]) was 0. The “Velvetleaf plant response rating” value (velvetleaf; [6]) was 3, the “Velvetleaf plant response rating” value (velvetleaf; [7]) was 0 and the “Plant response rating, Velvetleaf” value (velvetleaf; [8]) was 3. The “Velvetleaf plant response rating” value (velvetleaf; [9]) was 5, the “Plant response rating, Velvetleaf” value (velvetleaf; [10]) was 0 and the “Bedstraw plant response rating” value (bedstraw; [11]) was 3. For the same compound, the “Bedstraw plant response rating” value (bedstraw; [12]) was 8, the “Bedstraw plant response rating” value (bedstraw; [3]) was 0 and the “Plant response rating, Bedstraw” value (bedstraw; [13]) was 0. The “Plant response rating, Bedstraw” value (bedstraw; [5]) was 0, the “Bedstraw plant response rating” value (bedstraw; [6]) was 0 and the “Bedstraw plant response rating” value (bedstraw; [14]) was 5. For the same compound, the “Bedstraw plant response rating” value (bedstraw; [9]) was 8, the “Plant response rating, Bedstraw” value (bedstraw; [10]) was 0 and the “Morningglory plant response rating” value (morningglory; [1]) was 3. For the same compound, the “Morningglory plant response rating” value (morningglory; [12]) was 3, the “Morningglory plant response rating” value (morningglory; [2]) was 9 and the “Morningglory plant response rating” value (morningglory; [3]) was 0. The “Plant response rating, Morningglory” value (morningglory; [13]) was 0, the “Plant response rating, Morningglory” value (morningglory; [5]) was 0 and the “Morningglory plant response rating” value (morningglory; [6]) was 0. For the same compound, the “Morningglory plant response rating” value (morningglory; [7]) was 1, the “Morningglory plant response rating” value (morningglory; [9]) was 5 and the “Plant response rating, Morningglory” value (morningglory; [10]) was 3. The “Sugarbeets plant response rating” value (sugar beet; [1]) was 4, the “Sugarbeets plant response rating” value (sugar beet; [2]) was 5 and the “Sugarbeets plant response rating” value (sugar beet; [3]) was 0. For the same compound, the “Sugarbeets plant response rating (0 to 10 scale)” value (sugar beet; [4]) was 2, the “Plant response rating, Sugarbeets” value (sugar beet; [5]) was 2 and the “Sugarbeets plant response rating” value (sugar beet; [6]) was 4. For the same compound, the “Sugarbeets plant response rating” value (sugar beet; [7]) was 2, the “Plant response rating, Sugarbeets” value (sugar beet; [8]) was 4 and the “Sugarbeets plant response rating” value (sugar beet; [9]) was 5. The “Plant response rating, Sugarbeets” value (sugar beet; [10]) was 6, the “Corn plant response rating” value (corn; [1]) was 0 and the “Corn plant response rating” value (corn; [12]) was 0. For the same compound, the “Corn plant response rating” value (corn; [2]) was 0, the “Corn plant response rating” value (corn; [3]) was 0 and the “Plant response rating, Corn” value (corn; [13]) was 0. For the same compound, the “Plant response rating, Corn” value (corn; [5]) was 0, the “Corn plant response rating” value (corn; [6]) was 0 and the “Corn plant response rating” value (corn; [7]) was 0. The “Corn plant response rating” value (corn; [9]) was 0, the “Plant response rating, Corn” value (corn; [10]) was 2 and the “Wild oats plant response rating” value (wild oat; [1]) was 0. The “Wild oats plant response rating” value (wild oat; [2]) was 3, the “Wild oats plant response rating” value (wild oat; [3]) was 0 and the “Wild oats plant response rating (0 to 10 scale)” value (wild oat; [4]) was 3. The “Plant response rating, Wild oats” value (wild oat; [5]) was 3, the “Wild oats plant response rating” value (wild oat; [6]) was 5 and the “Wild oats plant response rating” value (wild oat; [7]) was 0. For the same compound, the “Plant response rating, Wild oats” value (wild oat; [8]) was 0, the “Wild oats plant response rating” value (wild oat; [9]) was 0 and the “Plant response rating, Wild oats” value (wild oat; [10]) was 7. For the same compound, the “Blackgrass plant response rating” value (blackgrass; [1]) was 3, the “Blackgrass plant response rating” value (blackgrass; [12]) was 6 and the “Blackgrass plant response rating” value (blackgrass; [2]) was 5. For the same compound, the “Blackgrass plant response rating” value (blackgrass; [3]) was 0, the “Plant response rating, Blackgrass” value (blackgrass; [13]) was 3 and the “Plant response rating, Blackgrass” value (blackgrass; [5]) was 4. For the same compound, the “Blackgrass plant response rating” value (blackgrass; [6]) was 4, the “Blackgrass plant response rating” value (blackgrass; [7]) was 3 and the “Blackgrass plant response rating” value (blackgrass; [9]) was 6. The “Plant response rating, Blackgrass” value (blackgrass; [10]) was 7, the “S. Flatsedge plant response rating” value (smallflower flatsedge; [15]) was 0 and the “S. Flatsedge plant response rating” value (smallflower flatsedge; [2]) was 3. The “S. Flatsedge plant response rating” value (smallflower flatsedge; [16]) was 0, the “Plant response rating, S. Flatsedge” value (smallflower flatsedge; [17]) was 0 and the “S. Flatsedge plant response rating” value (smallflower flatsedge; [18]) was 2. For the same compound, the “Cocklebur plant response rating” value (cocklebur; [1]) was 2, the “Cocklebur plant response rating” value (cocklebur; [12]) was 2 and the “Cocklebur plant response rating” value (cocklebur; [2]) was 4. For the same compound, the “Cocklebur plant response rating” value (cocklebur; [3]) was 0, the “Plant response rating, Cocklebur” value (cocklebur; [13]) was 0 and the “Plant response rating, Cocklebur” value (cocklebur; [5]) was 0. The “Cocklebur plant response rating” value (cocklebur; [6]) was 0, the “Cocklebur plant response rating” value (cocklebur; [7]) was 0 and the “Cocklebur plant response rating” value (cocklebur; [9]) was 3. For the same compound, the “Plant response rating, Cocklebur” value (cocklebur; [10]) was 7, the “Rice plant response rating” value (rice; [15]) was 0 and the “Rice plant response rating” value (rice; [2]) was 0. For the same compound, the “Rice plant response rating” value (rice; [16]) was 0, the “Plant response rating, Rice” value (rice; [17]) was 0 and the “Rice plant response rating” value (rice; [18]) was 0. The “B. signalgrass plant response rating” value (surinam grass; [11]) was 0, the “B. signalgrass plant response rating” value (surinam grass; [12]) was 0 and the “B. signalgrass plant response rating” value (surinam grass; [2]) was 4. For the same compound, the “B. signalgrass plant response rating” value (surinam grass; [3]) was 0, the “Plant response rating, B. signalgrass” value (surinam grass; [13]) was 0 and the “Plant response rating, B. signalgrass” value (surinam grass; [5]) was 2. The “B. signalgrass plant response rating” value (surinam grass; [6]) was 3, the “B. signalgrass plant response rating” value (surinam grass; [14]) was 0 and the “B. signalgrass plant response rating” value (surinam grass; Rate 500 g/ha, Postemergence, scale of 0 to 10 where 0 is no effect and 10 is complete control) was 2. For the same compound, the “Plant response rating, B. signalgrass” value (surinam grass; [10]) was 6, the “Soybean plant response rating” value (soybean; [1]) was 2 and the “Soybean plant response rating” value (soybean; [2]) was 3. The “Soybean plant response rating” value (soybean; [3]) was 0, the “Plant response rating, Soybean” value (soybean; [13]) was 0 and the “Plant response rating, Soybean” value (soybean; [5]) was 0. The “Soybean plant response rating” value (soybean; [6]) was 0, the “Soybean plant response rating” value (soybean; [7]) was 2 and the “Plant response rating, Soybean” value (soybean; [8]) was 3. The “Soybean plant response rating” value (soybean; [9]) was 4, the “Plant response rating, Soybean” value (soybean; [10]) was 2 and the “Redroot pigweed plant response rating” value (pigweed; [1]) was 4. For the same compound, the “Redroot pigweed plant response rating” value (pigweed; [2]) was 7, the “Redroot pigweed plant response rating” value (pigweed; [3]) was 0 and the “Plant response rating, Redroot pigweed” value (pigweed; [13]) was 0. For the same compound, the “Plant response rating, Redroot pigweed” value (pigweed; [5]) was 4, the “Redroot pigweed plant response rating” value (pigweed; [6]) was 10 and the “Redroot pigweed plant response rating” value (pigweed; [7]) was 3. The “Plant response rating, Redroot pigweed” value (pigweed; [8]) was 5, the “Redroot pigweed plant response rating” value (pigweed; [9]) was 7 and the “Plant response rating, Redroot pigweed” value (pigweed; [10]) was 10. For the same compound, the “Rape plant response rating” value (rape; [1]) was 2, the “Rape plant response rating” value (rape; [12]) was 4 and the “Rape plant response rating” value (rape; [2]) was 7. The “Rape plant response rating” value (rape; [3]) was 0, the “Plant response rating, Rape” value (rape; [13]) was 0 and the “Plant response rating, Rape” value (rape; [5]) was 0. For the same compound, the “Rape plant response rating” value (rape; [6]) was 3, the “Rape plant response rating” value (rape; [7]) was 2 and the “Rape plant response rating” value (rape; [9]) was 6. For the same compound, the “Plant response rating, Rape” value (rape; [10]) was 6, the “Giant foxtail plant response rating” value (giant foxtail; [1]) was 0 and the “Giant foxtail plant response rating” value (giant foxtail; [12]) was 2. For the same compound, the “Giant foxtail plant response rating” value (giant foxtail; [2]) was 2, the “Plant response rating, Giant foxtail” value (giant foxtail; [13]) was 10 and the “Plant response rating, Giant foxtail” value (giant foxtail; [5]) was 10. For the same compound, the “Giant foxtail plant response rating” value (giant foxtail; [6]) was 10, the “Giant foxtail plant response rating” value (giant foxtail; [7]) was 0 and the “Giant foxtail plant response rating” value (giant foxtail; [9]) was 7. For the same compound, the “Plant response rating, Giant foxtail” value (giant foxtail; [10]) was 10.
